From patent publication US20110172107A1, “ASSAY FOR IDENTIFYING AGENTS THAT MODULATE EPIGENETIC SILENCING, AND AGENTS IDENTIFIED THEREBY” (FOX CHASE CANCER CENTER, priority 2008, published 2011)

Key:
[1] = test system: silent GFP reporter in HeLa TI-C cell clones; assay: GFP reactivation in TI-C silent cell clones (FACS); type: cell-based, human; conditions: TSA treatment, FACS after 24 hours, vs DMSO control
Description: Cells. HeLa cell populations containing silent GFP genes, as described by Katz et al., 2007, J. Virol. 81:2592-2604, were utilized. TI-C cell clones were isolated by cell sorting as described by Katz et al., 2007, J. Virol. 81:2592-2604.
Analysis of GFP expression. GFP expression was quantitated by FACScan as described previously (Greger et al., 2005, J. Virol. 79:4610-4618; Katz et al., 2007, J. Virol. 81:2592-2604; Poleshko et al., 2008, J. Virol. 82:2313-2323).
Evidence for position-independent roles for HDAC1 and Daxx in retroviral reporter gene silencing. To determine if the integration sites of the retroviral DNA are determinants for the participation of specific host factors that control epigenetic silencing, a series of TI-C cell clones was examined. These clones were derived from a pool of cells in which the average GFP copy number was ca. 1 as measured by quantitative real-time PCR (Katz et al., 2007, J. Virol. 81:2592-2604; Poleshko et al., 2008, J. Virol. 82:2313-2323). […] As with the TI-C cell population, transfection with the HDAC1 siRNA pool phenocopied the TSA treatment (compare FIGS. 4A and B). Based on analyses of these clones, it was concluded that HDAC1 and, in most cases, Daxx are required for the maintenance of silencing at independent loci, but the integration site may modulate the extent of reactivation.

[2] = molecular target: heterochromatin protein 1 gamma (HP1γ) (Homo sapiens (Human)) (UniProt Q13185); assay: cell-based or functional assay
Chain of UniProt Q13185 (Q13185 whole entry): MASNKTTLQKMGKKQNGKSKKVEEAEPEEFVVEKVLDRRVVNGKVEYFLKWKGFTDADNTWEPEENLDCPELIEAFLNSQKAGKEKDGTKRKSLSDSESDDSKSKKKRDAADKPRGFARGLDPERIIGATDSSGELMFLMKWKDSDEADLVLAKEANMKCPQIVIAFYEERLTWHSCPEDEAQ

GFP-positive cells at 5 days postinfection (FACS) (% GFP-positive cells) [2] | Molecule | GFP reactivation in TI-C cell clones [1]
– | CC(/C=C/C(=O)NO)=C\[C@@H](C)C(=O)c1ccc(N(C)C)cc1 [TSA, trichostatin A] | induced GFP reactivation, but to various degrees
24 | dominant negative form of HP1 (dnHP1) (from UniProt P83916 104-185) | –
